Reference: publication PMC2862721, “The Tegument of the Human Parasitic Worm Schistosoma mansoni as an Excretory Organ: The Surface Aquaporin SmAQP Is a Lactate Transporter” (PLoS ONE, 2010)

Key:
SmAQP = biological target: T1, SmAQP (Schistosoma mansoni, UniProt C4PYI6); test: inhibition of radiolabelled lactate uptake in Xenopus oocytes, variable-slope fit; assay type: cell-based; settings: read-out: Ki (half maximal inhibitory concentration); Ki50
T1 construct: gene AQP1; 304 aa membrane protein
T1 sequence (C4PYI6 1-304): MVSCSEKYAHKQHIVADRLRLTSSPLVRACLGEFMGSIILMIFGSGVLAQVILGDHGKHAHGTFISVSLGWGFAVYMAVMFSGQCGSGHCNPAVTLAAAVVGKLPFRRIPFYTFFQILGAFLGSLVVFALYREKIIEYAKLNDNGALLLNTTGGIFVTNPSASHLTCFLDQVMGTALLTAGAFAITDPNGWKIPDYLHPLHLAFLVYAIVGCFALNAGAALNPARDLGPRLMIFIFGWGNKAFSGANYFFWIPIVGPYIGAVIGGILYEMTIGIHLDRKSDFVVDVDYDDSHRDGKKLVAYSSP

[1] = substrate: C[C@H](O)C(=O)O; test: cells, lysate or membranes; assay type: cell-based, Schistosoma mansoni; settings: 0.1-100 mM lactate; labelled compound; non-injected oocyte values subtracted

O=C(CCc1ccc(O)cc1)c1c(O)cc(O)cc1O [phloretin]
IC50 (SmAQP): 22 µM

B1: SmAQP (Schistosoma mansoni) (protein)
chain: MVSCSEKYAHKQHIVADRLRLTSSPLVRACLGEFMGSIILMIFGSGVLAQVILGDHGKHAHGTFISVSLGWGFAVYMAVMFSGQCGSGHCNPAVTLAAAVVGKLPFRRIPFYTFFQILGAFLGSLVVFALYREKIIEYAKLNDNGALLLNTTGGIFVTNPSASHLTCFLDQVMGTALLTAGAFAITDPNGWKIPDYLHPLHLAFLVYAIVGCFALNAGAALNPARDLGPRLMIFIFGWGNKAFSGANYFFWIPIVGPYIGAVIGGILYEMTIGIHLDRKSDFVVDVDYDDSHRDGKKLVAYSSP
notes: 304 aa membrane protein
Km [1]: 41 ± 5.8 mM
